Data: article PMC4942819 (Scientific Reports, 2016)
In brackets after ≈: the same amount, converted by molar mass.

System: H37Rv
Test: microbe, parasite or virus in culture
Format: cell-based, Mycobacterium tuberculosis
Settings: Mycobacterium tuberculosis, H37RV, read-out: MIC, strain H37Rv

SMILES	MIC [µg/mL]
NCC[C@H](O)C(=O)N[C@@H]1C[C@H](N)[C@@H](O[C@H]2O[C@H](CN)[C@@H](O)[C@H](O)[C@H]2O)[C@H](O)[C@H]1O[C@H]1O[C@H](CO)[C@@H](O)[C@H](N)[C@H]1O [AMK, amikacin]	0.5 (≈ 0.854 µM)
CC[C@@H](CO)NCCN[C@@H](CC)CO [EMB, ethambutol]	1 (≈ 4.89 µM)
NNC(=O)c1ccncc1 [INH, isoniazid]	0.03 (≈ 0.219 µM)
COc1c(N2C[C@@H]3CCCN[C@@H]3C2)c(F)cc2c(=O)c(C(=O)O)cn(C3CC3)c12 [MOX, moxifloxacin]	0.06 (≈ 0.149 µM)
CC1COc2c(N3CCN(C)CC3)c(F)cc3c(=O)c(C(=O)O)cn1c23 (stereo not shown) [OFLX, ofloxacin]	0.5 (≈ 1.38 µM)
CO[C@H]1/C=C/O[C@@]2(C)Oc3c(C)c(O)c4c(O)c(c(/C=N/N5CCN(C)CC5)c(O)c4c3C2=O)NC(=O)/C(C)=C\C=C\[C@H](C)[C@H](O)[C@@H](C)[C@@H](O)[C@@H](C)[C@H](OC(C)=O)[C@@H]1C [RMP, rifampicin]	< 0.03
O=[N+]([O-])c1cc(C(F)(F)F)cc2c(=S)nc(N3CCC4(CC3)OCCO4)sc12 [SKLB-TB1001, 8-nitro-2-(1,4-dioxa-8-azaspiro[4.5]decan-8-yl)-6-(trifluoromethyl)-4H-benzo[e][1,3]thiazine-4-thione]	< 0.0156
[H]/N=C(/N)N[C@H]1[C@H](O)[C@@H](O)[C@H](O[C@@H]2O[C@@H](C)[C@](O)(C=O)[C@H]2O[C@@H]2O[C@@H](CO)[C@H](O)[C@@H](O)[C@@H]2NC)[C@@H](N/C(N)=N\[H])[C@@H]1O [SM, streptomycin]	1 (≈ 1.72 µM)

Same assay, conditions: Table 2 prints no unit; test range in method b43 in μg/mL

SMILES	MIC, strain H37Rv [µg/mL]
NC[C@H]1O[C@H](O[C@H]2[C@H](O)[C@@H](O[C@H]3O[C@H](CO)[C@@H](O)[C@H](N)[C@H]3O)[C@H](N)C[C@@H]2N)[C@H](O)[C@@H](O)[C@@H]1O [KM, kanamycin]	1 (≈ 2.06 µM)
C[C@H]1COc2c(N3CCN(C)CC3)c(F)cc3c(=O)c(C(=O)O)cn1c23 [LVFX, levo-ofloxacin]	0.25 (≈ 0.692 µM)
